In ChEMBL document CHEMBL1201862, “PubChem BioAssay data set” (2004):
Where “and” joins values, the source holds several entries; their conditions need not be identical. Equal entries are not always repeated.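 In this assay, cells in 96-well plates receive the compound at five concentrations for 48 hours. Endpoints are linearly interpolated between the surrounding concentrations. The concentration for 50% growth inhibition is given as GI50.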 Calls of active or inactive are those of the source. No stated cut-off is given here; in the data, active = GI50 up to about 1.1 µM and inactive = higher.

Tests used:
Test in all cases: NCI tumour cell line growth inhibition, 48 h
[1] = tested on: A498
[2] = tested on: A549
[3] = tested on: ACHN
[4] = tested on: EKVX
[5] = tested on: HCC 2998
[6] = tested on: HOP-62
[7] = tested on: HT-29
[8] = tested on: K562
[9] = tested on: M14
[10] = tested on: MOLT-4
[11] = tested on: NCI/ADR-RES
[12] = tested on: OVCAR-3
[13] = tested on: OVCAR-5
[14] = tested on: SF-268
[15] = tested on: SK-MEL-2
[16] = tested on: SR
[17] = tested on: T47D
[18] = tested on: U-251
[19] = tested on: UACC-257
[20] = tested on: UO-31

Compound | GI50 [1] | GI50 [2] | GI50 [3] | GI50 [4] | GI50 [5] | GI50 [6] | GI50 [7] | GI50 [8] | GI50 [9] | GI50 [10] | GI50 [11] | GI50 [12] | GI50 [13] | GI50 [14] | GI50 [15] | GI50 [16] | GI50 [17] | GI50 [18] | GI50 [19] | GI50 [20]
O=C(CC(=O)Nc1ccccc1Cl)NNC(c1cc(/N=N/c2ccc(Br)cc2)ccc1O)P(O)O (centres undefined) | 2.27 µM (inactive) | 3.82 µM (inactive) | 0.813 µM (active) | 4.22 µM (inactive) | 3.8 µM (inactive) | 3.88 µM (inactive) | > 10 µM (inactive) | 2.4 µM (inactive) | 0.61 µM (active) | 0.338 µM (active) | 1.07 µM (active) | 0.348 µM (active) | 3.61 µM (inactive) | 0.679 µM (active) | > 10 µM (inactive) | 0.766 µM (active) | 2.12 µM (inactive) | 1.54 µM (inactive) | 3.2 µM (inactive) | 0.995 µM (active)
COc1cc(I)c2c3c1OC1C34CCN(C)C(C2)C4=CC(I)C1(OC)OC (centres undefined) | 32.2 µM (inactive) | 29.6 µM (inactive) | 27 µM (inactive) | 29.6 µM (inactive) | 15.3 µM (inactive) | 19.1 µM (inactive) | 26.5 µM (inactive) | 20.7 µM (inactive) | 37.4 µM (inactive) | 16.2 µM (inactive) | 28.2 µM (inactive) | 19.2 µM (inactive) | 24.2 µM (inactive) | 25.6 µM (inactive) | 16.4 µM (inactive) | 16.1 µM (inactive) | 14.6 µM (inactive) | 18.3 µM (inactive) | 19.3 µM (inactive) | 18.4 µM (inactive)
CC(=O)c1c2c(cc3c1CC1(Cc4cc5c(cc4C1=O)CCC5)C3)CCC2 (centres undefined) | > 100 µM (inactive) | 42.2 µM (inactive) | > 68.7 µM (inactive) | 36.1 µM (inactive) | 72.9 µM (inactive) | > 100 µM (inactive) | 54.2 µM (inactive) | 14 µM (inactive) | > 68.1 µM (inactive) | 4.95 µM (inactive) | 22.5 µM (inactive) | > 62.4 µM (inactive) | > 100 µM (inactive) | > 81.5 µM (inactive) | 79.8 µM (inactive) | 6.64 µM (inactive) | 8.91 µM (inactive) | > 77.1 µM (inactive) | 13.2 µM (inactive) | 36.9 µM (inactive)
O=P1(N(CCCl)CCCl)Oc2ccc(Cl)cc2C(C(Cl)(Cl)Cl)c2cc(Cl)ccc2O1 (centres undefined) | 24.9 µM (inactive) | 5.4 µM (inactive) | 15.5 µM (inactive) | 18.6 µM (inactive) | 10.9 µM (inactive) | 11.8 µM (inactive) | 5.48 µM (inactive) | 3.72 µM (inactive) | 18.8 µM (inactive) | 3.24 µM (inactive) | 14.8 µM (inactive) | 11.4 µM (inactive) | 32.8 µM (inactive) | 28.2 µM (inactive) | 18.5 µM (inactive) | 3.94 µM (inactive) | 20 µM (inactive) | 13.7 µM (inactive) | 18 µM (inactive) | 10.9 µM (inactive)
O=C(CCl)N1CCCCC1C1(c2cc3ccccc3[nH]2)OCCO1 (centres undefined) | 4.6 µM (inactive) | 5.61 µM (inactive) | 5 µM (inactive) | 1.5 µM (inactive) | 10.4 µM (inactive) | 3.12 µM (inactive) | 3.66 µM (inactive) | 1.93 µM (inactive) | 3.99 µM (inactive) | 1.85 µM (inactive) | 3.05 µM (inactive) | 2.01 µM (inactive) | 4.17 µM (inactive) | 3.22 µM (inactive) | 7.98 µM (inactive) | 0.454 µM (active) | 7.45 µM (inactive) | 2.86 µM (inactive) | 4.7 µM (inactive) | 3.73 µM (inactive)
O=c1c(Sc2ncccn2)c(Sc2ncccn2)cnn1CCl | 19.1 µM (inactive) | 16.4 µM (inactive) | 2.21 µM (inactive) | 2.9 µM (inactive) | 10.8 µM (inactive) | 1.49 µM (inactive) | 1.98 µM (inactive) | 3.39 µM (inactive) | 2.12 µM (inactive) | 2.72 µM (inactive) | 4.97 µM (inactive) | 2.02 µM (inactive) | 7.21 µM (inactive) | 2.99 µM (inactive) | 2.22 µM (inactive) | 2.79 µM (inactive) | 3.23 µM (inactive) | 7.08 µM (inactive) | 2.17 µM (inactive) | 1.7 µM (inactive)
CCN(CC)CCO/N=C1\CC[C@H]2[C@@H]3CCc4cc(OC)ccc4[C@H]3CC[C@]12C | 3.18 µM (inactive) | 2.84 µM (inactive) | 3.57 µM (inactive) | 3.16 µM (inactive) | 1.71 µM (inactive) | 1.77 µM (inactive) | 0.53 µM (active) | 0.685 µM (active) | 0.467 µM (active) | 1.44 µM (inactive) | 5.41 µM (inactive) | 4.25 µM (inactive) | 3.17 µM (inactive) | 2.07 µM (inactive) | 2.3 µM (inactive) | 1.49 µM (inactive) | 2.79 µM (inactive) | 2.59 µM (inactive) | 0.859 µM (active) | 2.94 µM (inactive)
COC(=O)C1=C(C(=O)OC)SC2(S1)C(C(=O)OC)=C(C(=O)OC)Sc1c2ss/c1=N/C(C)(C)C | 1.92 µM (inactive) | 2.43 µM (inactive) | 1.74 µM (inactive) | 1.49 µM (inactive) | 1.08 µM (active) | 3.72 µM (inactive) | 1.17 µM (inactive) | 2.21 µM (inactive) | 1.66 µM (inactive) | 0.417 µM (active) | 2.5 µM (inactive) | 1.67 µM (inactive) | 1.87 µM (inactive) | 1.86 µM (inactive) | 1.34 µM (inactive) | 0.366 µM (active) | 1.41 µM (inactive) | 1.72 µM (inactive) | 1.47 µM (inactive) | 1.92 µM (inactive)
COc1ccc(Nc2nc3ccccc3nc2C(=O)O)cc1 | > 100 µM (inactive) | > 100 µM (inactive) | 55 µM (inactive) | 54.5 µM (inactive) | 3.46 µM (inactive) | > 100 µM (inactive) | > 100 µM (inactive) | 63.4 µM (inactive) | > 100 µM (inactive) | 84.1 µM (inactive) | 38.9 µM (inactive) | 65.9 µM (inactive) | > 100 µM (inactive) | 61.1 µM (inactive) | > 100 µM (inactive) | 48.6 µM (inactive) | 53.6 µM (inactive) | 64.3 µM (inactive) | > 100 µM (inactive) | 40 µM (inactive)
CC(=O)OC1CC2C(=O)CC1(C)C2(C)C (centres undefined) | > 100 µM (inactive) | > 100 µM (inactive) | > 100 µM (inactive) | > 100 µM (inactive) | > 100 µM (inactive) | > 100 µM (inactive) | > 100 µM (inactive) | > 100 µM (inactive) and > 80.4 µM (inactive) | > 100 µM (inactive) | > 100 µM (inactive) | > 100 µM (inactive) | > 100 µM (inactive) | > 100 µM (inactive) | > 100 µM (inactive) | > 100 µM (inactive) | > 100 µM (inactive) | > 100 µM (inactive) | > 100 µM (inactive) | > 100 µM (inactive) | > 100 µM (inactive)
O=c1oc2c(ccc3c(O)cccc32)c2c1CCCC2 | 27.7 µM (inactive) | 72.3 µM (inactive) | 26.8 µM (inactive) | 33.8 µM (inactive) | 5.61 µM (inactive) | 18.9 µM (inactive) | > 100 µM (inactive) | > 100 µM (inactive) | > 100 µM (inactive) | > 100 µM (inactive) | 46 µM (inactive) | > 100 µM (inactive) | > 100 µM (inactive) | 15 µM (inactive) | 3.52 µM (inactive) | 4.55 µM (inactive) | 80.9 µM (inactive) | 15 µM (inactive) | > 100 µM (inactive) | 21.1 µM (inactive)
FC(F)(F)c1ccc2c(c1)nc(Cc1ccc(Cl)c(Cl)c1)n2CC1CCCN2CCCCC12 (centres undefined) | 25.4 µM (inactive) | 18.1 µM (inactive) | 22.8 µM (inactive) | 21.2 µM (inactive) | 8.95 µM (inactive) | 31 µM (inactive) | 11.2 µM (inactive) | 32.5 µM (inactive) | 12.4 µM (inactive) | 37.4 µM (inactive) | 25.8 µM (inactive) | 20 µM (inactive) | 17.4 µM (inactive) | 27.8 µM (inactive) | 35.5 µM (inactive) | 23.2 µM (inactive) | 29 µM (inactive) | 23.1 µM (inactive) | 18.5 µM (inactive) | 0.169 µM (active)
Nc1ccc(-c2nc3cc(F)ccc3s2)cc1 | 33.5 µM (inactive) | 87.7 µM (inactive) | 20.6 µM (inactive) | 2 µM (inactive) | 26.3 µM (inactive) | 18.3 µM (inactive) | > 91 µM (inactive) | > 100 µM (inactive) | 71.6 µM (inactive) | > 82.2 µM (inactive) | > 100 µM (inactive) | > 90.2 µM (inactive) | 26.4 µM (inactive) | 31 µM (inactive) | 30.8 µM (inactive) | 5.96 µM (inactive) | 0.424 µM (active) | 39.4 µM (inactive) | > 43.4 µM (inactive) | > 60 µM (inactive)
CC1(C)CC(O)CC(C)(C)N1O [TEMPOL HYDROXYLAMINE] | > 100 µM (inactive) | > 100 µM (inactive) | > 100 µM (inactive) | > 100 µM (inactive) | > 100 µM (inactive) | > 100 µM (inactive) | > 100 µM (inactive) | > 100 µM (inactive) | > 100 µM (inactive) | > 100 µM (inactive) | > 100 µM (inactive) | 68.1 µM (inactive) | > 100 µM (inactive) | > 100 µM (inactive) | > 100 µM (inactive) | > 100 µM (inactive) | > 100 µM (inactive) |  | > 100 µM (inactive) | > 100 µM (inactive)
